Counter-ions that a name gives are not always drawn. Like-named read-outs stand apart in the source and are kept apart here.
Legend:
[1] = test system: tumor-induced bone pain (tactile allodynia)
Method: This study was conducted in two parts; the first phase determined the optimal dose level for the second phase.

[2] = test system: sigma receptor; conditions: Sigma 1 and Sigma 2; cited from earlier work

## Cc1cc(OCCN2CCOCC2)nn1-c1ccc2ccccc2c1 [example 1, 4-{2-[5-Methyl-1-(naphthalen-2-yl)-1H-pyrazol-3-yloxy]ethyl}morpholine hydrochloride]
[1]; Phase 2, example 1 alone 40 mg/kg, 30 minutes after administration
  mitigation of allodynia (von Frey test): not at 40 mg/kg
[1]; Phase 2, example 1 alone 80 mg/kg, 30 minutes after administration
  mitigation of allodynia (von Frey test): statistically significant mitigation of allodynia

## CN1CC[C@]23c4c5ccc(O)c4O[C@H]2[C@@H](O)C=C[C@H]3[C@H]1C5 [morphine]
[1]; Phase 1, morphine 1.25 mg/kg given at day 18
  mitigation of allodynia (von Frey test): sub threshold dose
[1]; Phase 1, morphine 2.5 mg/kg given at day 18
  mitigation of allodynia (von Frey test): able to mitigate allodynia with statistical significance
[1]; Phase 1, morphine 5 mg/kg given at day 18
  mitigation of allodynia (von Frey test): able to mitigate allodynia with statistical significance
[1]; Phase 2, morphine 5 mg/kg (positive control), 24 hours after administration
  effect on allodynia 24 hours after administration: no significant effect

## CC(C)=CCN1CCC2(C)c3cc(O)ccc3CC1C2C (stereo not shown) [pentazocine]
[2]
  affinity of the sigma receptors: very high affinity
